The results in this text go back to patent US20070037253A1, “Methods and compositions for treatment of arthritis and cancer” (priority 2003, published 2007).

Experiment [1] has as its target collagenase I (MMP-1). The experiment can be described thus: Collagenase activity assay, collagen thin film (collagen type II substrate). It counts as biochemical. The settings on record: collagen thin film method, FIG. 2; read-out: IC50 (mean±SD), collagenase I (MMP-1). The procedure:
Collagenase activity was assayed by collagen thin film method using collagen type II as substrate. IC50 values were graphically determined from the inhibition curves, constructed on the basis of the in vitro results of collagenase assays. Results are the mean±SD of 3 separate experiments done in triplicates. (•), P-NT.II; (□), PIP [59-67] dimer; (Δ), PIP [59-67} monomer; (∇), LY 315920.
Collagenase activity assay: Using collagen thin film as the substrate, a quantitative method was established to measure the enzymatic activity of the MMPs (principally collagenase). Collagen type II (Sigma) solution (4 μL, 3 mg/mL in 0.012 N HCl) was added to each well of 96-well plates and precipitated by slowly increasing the pH with 4 μL of H2O and 8 μL of 0.012 N NaOH. The plate was dried at 23° C. for 24 hr, washed with H2O, and dried again at 23° C., resulting in a thin film containing 12 μg of collagen that was tightly bound to the bottom of the wells. Enzymatic reactions of the collagenase I (with and without peptide inhibitors) against the collagen films were carried out in quadruplicate at 24° C. for 16 h. The digested portion of the film was washed away, while the undigested portion was fixed for 3 h with 0.1% Coomassie brilliant blue R in 10% acetic acid and 45% methanol, and the wells washed and dried.

The test system of experiment [2] is MMP-1 gene transcript. Briefly: QRT-PCR relative mRNA expression in IL-1β-stimulated rabbit synovial fibroblasts. Type of experiment: cell-based. The text has this:
(§1) FIG. 5 is a view of the effect of peptide on the relative expression of MMP and sPLA2 genes. QRT-PCR was used for assessing relative mRNA expression levels of IL-1β-stimulated rabbit synovial fibroblast cells in the presence and absence of the candidate lead peptide PIP [59-67] dimer. The amount of each mRNA was obtained by quantitative RT-PCR. The relative levels of gene expression were normalized to the housekeeping gene (GAPDH). […] Values are expressed as ±S.E.
(§2) RNA isolation of cultured FLSCs: FLSCs were grown to 80% confluence on 12-well culture dishes and starved in a serum-free medium with 5 μM PIP [59-67] dimer for 2 h. The cells were then stimulated with 5 ng/mL IL-1β (Recombinant human, Chemicon, USA.) for 24 h, washed with cold PBS and total RNA isolated from peptide-treated (n=3) and untreated (n=3) FLSCs using RNeasy® mini kit. The RNA samples were subsequently treated with RNase-free Dnase-I at room temperature for 20 min and stored at −80° C. until use. The quality and quantity of extracted RNA was determined by spectrophotometry (Bio-Rad, USA). All RNA samples used for QRT-PCR experiments were of highest purity with A260/A280 ratios of 1.9-2.1. The integrity and relative contamination with residual genomic DNA was assessed by 1% denaturing agarose gel electrophoresis.
(§3) Quantitative Real Time RT-PCR (LightCycler): Quantitative fluorescence-based real-time PCR was carried out according to the manufacturer's instructions using the LightCycler system with LightCycler FastStart DNA Master^PLUS SYBR Green I kit (Roche Diagnostics, Germany) as an independent method for assessing relative gene expression. Reverse Transcription (RT) of RNA and QRT-PCR were performed as follows: single stranded cDNA was generated from 3 μg of total RNA, 200 μM nucleotides, 500 units Superscript II reverse transcriptase (Invitrogen) and 1.5 μM oligo(dT)15 primers in 50 μL reactions. Reverse transcription was stopped after 1 hr by heating to 95° C. for 5 min. The primers were designed by Primer3 software: http://bioinformatics.weizmann.ac.il/cgi-bin/primer/primer3.cgi and subsequently checked for specificity using BLAST: http://www.ncbi.nlm.nih.gov/genome/seq/HsBlast.htmL. All primers and probes were synthesized by 1st BASE Pvt. Ltd., Singapore. The expression of GAPDH was used as an internal calibrator for equal RNA loading and to normalize relative expression data for all other genes analyzed. The copy ratio of each analyzed cDNA was determined as the mean of 3 experiments. The real-time quantitative RT-PCR data were quantified using relative quantification (2^−ΔΔCT) method as described [Livak, K. J, and Schmittgen, T. D. (2001) Analysis of relative gene expression data using real-time quantitative PCR and the 2(-Delta Delta C(T)) method.

The test system of experiment [3] is MMP-2 gene transcript. The experiment is described as above. It counts as cell-based.
Description: as §1, §2, §3

Experiment [4] has as its system MMP-9 gene transcript. Described as above. It counts as cell-based.
Description: as §1, §2, §3

In experiment [5] the test system is TIMP-1 gene transcript. The description is as above. It counts as cell-based. The settings on record: 5 μM peptide, IL-1β-induced.
Description: as §1, §2, §3

Experiment [6] has as its system TIMP-2 gene. The experiment is described as above. The settings on record: co-treatment with peptide, IL-1β-induced, normalized to GAPDH. It counts as cell-based.
Description: as §1, §2, §3

The test system of experiment [7] is sPLA2 gene transcript. Described as above. Type of experiment: cell-based.
Description: as §1, §2, §3

The mark [8] stands for this setting: 5 μM peptide, IL-1β-induced, normalized to GAPDH.
[9] abbreviates: IL-1β-stimulated rabbit synovial fibroblasts in culture.

Entries after “also recorded” stand apart in the source; their conditions may differ. Where a SMILES comes first, the peptide text is derived from it.

In general, IC50 refers to the concentration at which inhibition is half-maximal. As to `CC[C@H](C)[C@H](NC(=O)[C@H](CC(=O)O)NC(=O)[C@@H](N)C(C)C)C(=O)N[C@@H](Cc1c[nH]cn1)C(=O)N[C@H](C(=O)N[C@@H](Cc1c[nH]c2ccccc12)C(=O)N[C@@H](CC(=O)O)C(=O)NCC(=O)N[C@H](C(=O)N[C@H](C(=O)N[C@@H](CC(=O)O)C(=O)N[C@H](C(=O)N[C@@H](Cc1c[nH]cn1)C(=O)N[C@H](C(=O)N[C@@H](Cc1c[nH]c2ccccc12)C(=O)N[C@@H](CC(=O)O)C(=O)NCC(=O)N[C@H](C(=O)O)C(C)C)C(C)C)[C@@H](C)CC)C(C)C)C(C)C)C(C)C` [PIP [59-67] dimer] (H-VDIHVWDGVVDIHVWDGV-OH; N-terminus and C-terminus assumed), the half-inhibitory concentration (IC50) in experiment [1] was found to be 7.75 ± 1.11 µM. Also, in experiment [2] (setting [8]), the “MMP-1 mRNA expression level” value is listed as “significantly inhibited; also recorded: significantly suppressed”. For the same compound, in experiment [2] (setting [9]), the “decrease of MMP-1 mRNA expression” value was over 1 fold. Further, the “MMP-2 mRNA expression level” value in experiment [3] (setting [8]) is on record as “significantly inhibited; also recorded: significantly suppressed”. Besides, in experiment [3] (setting [9]), the “decrease of MMP-2 mRNA expression” value is recorded as over 1 fold. For the same compound, the “MMP-9 mRNA expression level” value in experiment [4] (setting [8]) is given as “significantly inhibited; also recorded: significantly suppressed”. The “decrease of MMP-9 mRNA expression” value in experiment [4] (setting [9]) is on record as over 1 fold. In addition, the “TIMP-1 mRNA expression level” value in experiment [5] is given as “significantly suppressed”. Also, the TIMP-2 gene expression result in experiment [6] was “significantly inhibited”. The “sPLA2 mRNA expression level” value in experiment [7] (setting [8]) is given as “significantly inhibited; also recorded: significantly suppressed”. Moreover, in experiment [7] (setting [9]), the “decrease of sPLA2 mRNA expression” value is reported as over 1 fold.
